Experimental data taken from PMC12013366, “In vitro evaluation of the immunogenic potential of gramicidin S and its photocontrolled analogues” (RSC Medicinal Chemistry, 2025).
Like-named read-outs stand apart in the source and are kept apart here. Non-standard residues stand in square brackets, D forms with d. Residues, ends and D or L forms follow the SMILES beside them. Orn = NCCC[C@H](N)C(=O)O

Assay: Cytotoxicity, two-dimensional (monolayer) assay
Format: cell-based
Conditions: human, HEK-293 cells, HEK-293 monolayer, necrotic cells by PI/Hoechst 33342 imaging, ± SEM, n=4, read-out: IC50, cytotoxic activity, two-dimensional assay; for IC50 at 10 min: 10 mins incubation; for IC50 at 1 h: 1 h incubation; for IC50 at 24 h: 24 hrs incubation; for IC50 at 72 h: 72 hrs incubation
Description: Screening of the cytotoxic activity of compounds in a two-dimensional (2D) format was designed in accordance with the previously obtained data[32] for the HeLa cell line. The cytotoxic action of peptides was quantified in the 96-well plate format at four time points after adding compounds – at 10 min, 1 h, 24 h and 72 h. […] The selected IC50 values for different incubation times are exemplified in Fig. 2.
Essential experimental details have been previously published by us.[79]
The cells were maintained in a culture till 70–80% confluence was reached and then seeded in a 96-well black-wall transparent-bottom plate (6055302, Revvity) with 200 μL of appropriate medium per well. The seeding density has been previously determined in the optimization experiments for each cell line: 3500 cells per well for 4T1; 20 000 cells per well for HEK-293; 20 000 cells per well for HeLa; 25 000 cells per well for HepG2; 8000 cells per well for LLC; 15 000 cells per well for MDA-MB-231. After 24 h incubation at 37 °C, the medium was removed and 100 μL of fresh medium was added. Two-fold serial dilution of compounds (256–0.5 μM, 11 points for closed forms of photoswitchable peptides; 128–0.25 μM, 11 points for open forms; 64–0.5, 8 points for GS) in the medium was prepared and dispensed in 100 μL per well. The plates were incubated with compounds for 10 min, 1 h, 24 h and 72 h. The staining solution consisting of 25 μM of Hoechst 33342 (62249, Thermo Fisher), 5 μM of propidium iodide (J66764-MC, Thermo Fisher) or ethidium homodimer-1 (E1169, Thermo Fisher), with 10% FBS in DPBS (21600044, Thermo Fisher) was prepared and added to wells in a volume of 50 μL for 20 min. Fluorescence images were acquired using an INCell Analyzer 6500 HS automatic imaging system with 20× objective lens (NA = 0.45) and 16 fields of view (FOV) per well. The numerical data were obtained using INCarta 1.13 and then analysed using GraphPad Prism 10.

[1] = 2D monolayer, Table S1 series (with LMB033)
[2] = monolayer (2D), Table S2 series (with LMB002)

**Q.** For `CC(C)C[C@@H]1NC(=O)[C@H](CCCN)NC(=O)[C@H](C(C)C)NC(=O)[C@@H]2CCCN2C(=O)[C@@H](Cc2ccccc2)NC(=O)[C@H](CC(C)C)NC(=O)[C@H](CCCN)NC(=O)[C@H](C(C)C)NC(=O)[C@@H]2CCCN2C(=O)[C@@H](Cc2ccccc2)NC1=O` [Gramicidin S, gramicidin S] (cyclo(V[Orn]L[dF]PV[Orn]L[dF]P)), which IC50 at 10 min [1] is on record?
**A.** 12.9 ± 0.4 µM

**Q.** And the IC50 at 1 h [1]?
**A.** 11.6 ± 0.1 µM

**Q.** And the IC50 at 24 h [1]?
**A.** 8.3 ± 0.2 µM

**Q.** And the IC50 at 72 h [1]?
**A.** 8.4 ± 0.7 µM

**Q.** What about the IC50 at 10 min [2] of the same compound?
**A.** 15.4 ± 0.1 µM

**Q.** What about the IC50 at 1 h [2] of the same compound?
**A.** 12.7 ± 0.2 µM

**Q.** And the IC50 at 24 h [2]?
**A.** 10.4 ± 0.1 µM

**Q.** And the IC50 at 72 h [2]?
**A.** 11.1 ± 0.1 µM
